Laboratory results as given in ChEMBL document CHEMBL5137009, “On the Utility of Chemical Strategies to Improve Peptide Gut Stability” (J Med Chem, 2022).
*1 amine or outer side, *2 acyl side, *3 side chain or, on linkers, in order; H or OH if unused. Where a SMILES comes first, the peptide text is derived from it. Bridges are numbered along the chain shown (N, C = ends). X1 = O=C(CCC[*:2])[*:1]

Legend:
[1] = Stability of the compound in simulated intestinal fluid at pH 6.8 assessed as half life measured up to 24 hrs by RP-HPLC-UV analysis; type: ADME
[2] = Stability of the compound in simulated gastric fluid at pH 1.2 assessed as half life measured up to 24 hrs by RP-HPLC-UV analysis; type: ADME

Compound	half-life [1] [h]	half-life [2] [h]
CC[C@H](C)[C@@H]1NC(=O)[C@H](Cc2ccc(O)cc2)NC(=O)[C@@H](N)CSSC[C@@H](C(=O)N2CCC[C@H]2C(=O)N[C@@H](CC(C)C)C(=O)N(C)CC(N)=O)NC(=O)[C@H](CC(N)=O)NC(=O)[C@H](CCC(N)=O)NC1=O	2.9	–
CC(C)C[C@@H]1NC(=O)CNC(=O)[C@H](CC(N)=O)NC(=O)[C@H](CCCNC(=N)N)NC(=O)[C@H]([C@@H](C)O)NC(=O)[C@@H]2CSSC[C@@H]3NC(=O)[C@H]([C@@H](C)O)NC(=O)CNC(=O)CNC(=O)[C@H](C(C)C)NC(=O)[C@@H]4CSSC[C@H](NC(=O)[C@H]([C@@H](C)O)NC(=O)[C@H](CSSC[C@H](NC(=O)[C@H](C(C)C)NC(=O)[C@@H]5CCCN5C1=O)C(=O)NCC(=O)N[C@@H](CCC(=O)O)C(=O)N[C@@H]([C@@H](C)O)C(=O)N4)NC(=O)CNC(=O)[C@@H]1CCCN1C(=O)[C@H]([C@@H](C)O)NC(=O)[C@H](CC(N)=O)NC3=O)C(=O)N[C@@H](CO)C(=O)N[C@@H](Cc1c[nH]c3ccccc13)C(=O)N1CCC[C@H]1C(=O)N[C@@H](C(C)C)C(=O)N2	> 24	> 24
CC[C@H](C)[C@@H]1NC(=O)[C@H](Cc2ccc(O)cc2)NC(=O)[C@@H]2CSSC[C@@H]3NC(=O)[C@H](C(C)C)NC(=O)[C@@H]4CCCN4C(=O)[C@H](Cc4c[nH]c5ccccc45)NC(=O)[C@H](CO)NC(=O)[C@@H]4CSSC[C@H](NC(=O)[C@H]([C@@H](C)O)NC(=O)[C@H](CCC(=O)O)NC(=O)CNC(=O)[C@H](CSSC[C@H](NC(=O)[C@H](CC(N)=O)NC(=O)[C@H](CCC(N)=O)NC1=O)C(=O)N[C@@H]([C@@H](C)O)C(=O)N4)NC(=O)[C@H](C(C)C)NC(=O)[C@@H]1CCCN1C(=O)[C@H](CC(C)C)NC(=O)CNC(=O)[C@H](CC(N)=O)NC(=O)[C@H](CCCNC(=N)N)NC(=O)[C@H]([C@@H](C)O)NC3=O)C(=O)N[C@@H](C(C)C)C(=O)NCC(=O)NCC(=O)N[C@@H]([C@@H](C)O)C(=O)N2	> 24	–
CC[C@H](C)[C@@H]1NC(=O)[C@H](Cc2ccc(O)cc2)NC(=O)[C@@H](N)CSSC[C@@H](C(=O)N2CCC[C@H]2C(=O)N[C@@](C)(CC(C)C)C(=O)NCC(N)=O)NC(=O)[C@H](CC(N)=O)NC(=O)[C@H](CCC(N)=O)NC1=O	4.4	–
CC[C@H](C)[C@@H]1NC(=O)[C@H](Cc2ccc(O)cc2)NC(=O)[C@@H]2CSSC[C@@H]3NC(=O)[C@H]([C@@H](C)CC)NC(=O)[C@@H]4CCCN4C(=O)[C@H](Cc4c[nH]c5ccccc45)NC(=O)[C@H](CO)NC(=O)[C@@H]4CSSC[C@H](NC(=O)[C@H]([C@@H](C)O)NC(=O)[C@H](CCC(=O)O)NC(=O)CNC(=O)[C@H](CSSC[C@H](NC(=O)[C@H](CC(N)=O)NC(=O)[C@H]([C@@H](C)O)NC1=O)C(=O)N[C@@H]([C@@H](C)O)C(=O)N4)NC(=O)[C@H](C(C)C)NC(=O)[C@@H]1CCCN1C(=O)[C@H](CC(C)C)NC(=O)CNC(=O)[C@H](CC(N)=O)NC(=O)[C@H](CCCNC(=N)N)NC(=O)[C@H](CCCCN)NC3=O)C(=O)N[C@@H]([C@@H](C)O)C(=O)N[C@@H](CC(C)C)C(=O)NCC(=O)N[C@@H]([C@@H](C)O)C(=O)N2	> 24	–
CC[C@H](C)[C@@H]1NC(=O)[C@H](Cc2ccc(O)cc2)NC(=O)[C@@H](N)CSSC[C@@H](C(=O)N2CCC[C@H]2C(=O)N[C@H](CC(=O)NCC(N)=O)CC(C)C)NC(=O)[C@H](CC(N)=O)NC(=O)[C@H](CCC(N)=O)NC1=O	3.6	–
CC[C@H](C)[C@@H]1NC(=O)[C@H](Cc2ccc(O)cc2)NC(=O)[C@@H]2CSSC[C@@H]3NC(=O)[C@H](C(C)C)NC(=O)[C@@H]4CCCN4C(=O)[C@H](Cc4c[nH]c5ccccc45)NC(=O)[C@H](CO)NC(=O)[C@@H]4CSSC[C@H](NC(=O)[C@H]([C@@H](C)O)NC(=O)[C@H](CCC(=O)O)NC(=O)CNC(=O)[C@H](CSSC[C@H](NC(=O)[C@H](CC(N)=O)NC(=O)[C@H]([C@@H](C)O)NC1=O)C(=O)N[C@@H]([C@@H](C)O)C(=O)N4)NC(=O)[C@H](C(C)C)NC(=O)[C@@H]1CCCN1C(=O)[C@H](CC(C)C)NC(=O)CNC(=O)[C@H](CC(N)=O)NC(=O)[C@H](CCCNC(=N)N)NC(=O)[C@H]([C@@H](C)O)NC3=O)C(=O)N[C@@H](C(C)C)C(=O)NCC(=O)NCC(=O)N[C@@H]([C@@H](C)O)C(=O)N2	> 24	–
CC[C@H](C)[C@@H]1NC(=O)[C@@H]2CCCN2C(=O)[C@H](Cc2c[nH]c3ccccc23)NC(=O)[C@H](CO)NC(=O)[C@@H]2CSSC[C@@H]3NC(=O)[C@H]([C@@H](C)O)NC(=O)[C@H](CCC(=O)O)NC(=O)CNC(=O)[C@@H]4CSSC[C@H](NC(=O)CNC(=O)[C@H](CCC(N)=O)NC(=O)[C@H]([C@@H](C)O)NC(=O)[C@H](Cc5ccc(O)cc5)NC(=O)[C@H](CSSC[C@H](NC1=O)C(=O)N[C@@H](CCCCN)C(=O)N[C@@H](CCCNC(=N)N)C(=O)N[C@@H](CC(N)=O)C(=O)NCC(=O)N[C@@H](CC(C)C)C(=O)N1CCC[C@H]1C(=O)N[C@@H](C(C)C)C(=O)N4)NC(=O)[C@H]([C@@H](C)O)NC(=O)CNC(=O)[C@H](CC(C)C)NC(=O)[C@H]([C@@H](C)O)NC3=O)C(=O)N[C@@H]([C@@H](C)O)C(=O)N2	> 24	> 24
CC[C@H](C)[C@@H]1NC(=O)[C@H](Cc2ccc(O)cc2)NC(=O)[C@@H]2CSSC[C@H](NC(=O)[C@H](CC(N)=O)NC(=O)[C@H](CCC(N)=O)NC1=O)C(=O)N1CCC[C@H]1C(=O)N[C@@H](CC(C)C)C(=O)NCC(=O)N2	0.117	–
CC[C@@H](C)[C@H]1NC(=O)[C@@H](Cc2ccc(O)cc2)NC(=O)[C@H](N)CSSC[C@H](C(=O)N2CCC[C@@H]2C(=O)N[C@H](CC(C)C)C(=O)NCC(N)=O)NC(=O)[C@@H](CC(N)=O)NC(=O)[C@@H](CCC(N)=O)NC1=O	> 24	–
[H][C@@]12CCCN1C(=O)[C@@H]1CSSC[C@H](NC(=O)CNC(=O)[C@H](C)NC(=O)CNC(=O)[C@H](C)NC(=O)CNC(=O)[C@H](C)NC(=O)CNC(=O)[C@H](CC(C)C)NC2=O)C(=O)N[C@@H](Cc2ccc(O)cc2)C(=O)N[C@@H]([C@@H](C)CC)C(=O)N[C@@H](CCC(N)=O)C(=O)N[C@@H](CC(N)=O)C(=O)N1 (HELM PEPTIDE1{A.G.A.G.A.G.C.Y.I.Q.N.C.P.L.G}$PEPTIDE1,PEPTIDE1,7:R3-12:R3|PEPTIDE1,PEPTIDE1,1:R1-15:R2$$$V2.0)	< 0.05	–
CC[C@H](C)[C@@H]1NC(=O)[C@@H]2CSSC[C@H](NC(=O)[C@H](CCCNC(=N)N)NC(=O)[C@@H]3CSSC[C@H](NC1=O)C(=O)N[C@@H]([C@@H](C)O)C(=O)N[C@@H](CCCNC(=N)N)C(=O)NCC(=O)N[C@@H](Cc1ccccc1)C(=O)N3)C(=O)N[C@@H](CC(C)C)C(=O)N[C@H]1CSSC[C@H](NC(=O)[C@H](C(C)C)NC(=O)CNC(=O)[C@H](CCCNC(=N)N)NC(=O)[C@H](CCCNC(=N)N)NC1=O)C(=O)N[C@@H](CCCNC(=N)N)C(=O)N2 (HELM PEPTIDE1{G.F.C.R.C.L.C.R.R.G.V.C.R.C.I.C.T.R}$PEPTIDE1,PEPTIDE1,3:R3-16:R3|PEPTIDE1,PEPTIDE1,5:R3-14:R3|PEPTIDE1,PEPTIDE1,7:R3-12:R3|PEPTIDE1,PEPTIDE1,1:R1-18:R2$$$V2.0)	–	2.2
CC[C@H](C)[C@@H]1NC(=O)[C@@H]2CCCN2C(=O)[C@@H]2CCCN2C(=O)[C@H]([C@@H](C)CC)NC(=O)[C@H](CO)NC(=O)[C@H](CCCCN)NC(=O)[C@H]([C@@H](C)O)NC(=O)[C@@H]2CSSC[C@H](NC1=O)C(=O)N[C@@H](Cc1ccc(OC)cc1)C(=O)N[C@@H](Cc1ccccc1)C(=O)N[C@@H](CCC(N)=O)C(=O)N[C@@H](CC(N)=O)C(=O)N[C@@H](CCCNC(=N)N)C(=O)N1CCC[C@H]1C(=O)N[C@@H](CCCNC(=N)N)C(=O)N2 (cyclo(CTKSIPPICY(Me)FQNRPR); disulfide 1-9)	0.05	–
CC[C@H](C)[C@@H]1NC(=O)[C@H](Cc2ccc(OC)cc2)NC(=O)CCCSC[C@@H](C(=O)N2CCC[C@H]2C(=O)N[C@@H](CC(C)C)C(=O)NCC(N)=O)NC(=O)[C@H](CC(N)=O)NC(=O)[C@H](CCC(N)=O)NC1=O [CARBETOCIN] (Y(Me)IQNCPLG-NH2; linker N-5 via X1)	–	> 24
C[C@@H]1NC(=O)[C@@H]2CCCN2C(=O)[C@H](CC(N)=O)NC(=O)[C@@H]2CSSC[C@H](N)C(=O)N[C@H]3CSSC[C@H](NC1=O)C(=O)N[C@@H]([C@@H](C)O)C(=O)NCC(=O)N[C@H](C(=O)N[C@@H](Cc1ccc(O)cc1)C(=O)O)CSSC[C@H](NC(=O)[C@H](Cc1ccc(O)cc1)NC(=O)[C@H](CCC(=O)O)NC3=O)C(=O)N2 [LINACLOTIDE] (HELM PEPTIDE1{C.C.E.Y.C.C.N.P.A.C.T.G.C.Y}$PEPTIDE1,PEPTIDE1,1:R3-6:R3|PEPTIDE1,PEPTIDE1,2:R3-10:R3|PEPTIDE1,PEPTIDE1,5:R3-13:R3$$$V2.0)	–	> 24
C[C@@H](O)[C@@H]1NC(=O)[C@H](CCCCN)NC(=O)[C@@H](Cc2c[nH]c3ccccc23)NC(=O)[C@H](Cc2ccccc2)NC(=O)[C@@H](NC(=O)[C@H](N)Cc2ccccc2)CSSC[C@@H](C(=O)N[C@H](CO)[C@@H](C)O)NC1=O [OCTREOTIDE]	–	> 24
CC[C@H](C)[C@@H]1NC(=O)[C@H](Cc2ccc(O)cc2)NC(=O)[C@@H](N)CSSC[C@@H](C(=O)N2CCC[C@H]2C(=O)N[C@@H](CC(C)C)C(=O)NCC(N)=O)NC(=O)[C@H](CC(N)=O)NC(=O)[C@H](CCC(N)=O)NC1=O [OXYTOCIN]	–	> 24
CC(C)C[C@H](NC(=O)[C@@H]1CSSC[C@@H]2NC(=O)[C@H](CC(C)C)NC(=O)[C@H](CCC(=O)O)NC(=O)[C@@H](NC(=O)[C@H](CCC(=O)O)NC(=O)[C@H](CC(=O)O)NC(=O)[C@@H](N)CC(N)=O)CSSC[C@H](NC(=O)[C@H](C)NC(=O)[C@H](C(C)C)NC(=O)[C@H](CC(N)=O)NC(=O)[C@H](C(C)C)NC2=O)C(=O)N[C@@H]([C@@H](C)O)C(=O)NCC(=O)N1)C(=O)O [PLECANATIDE]	–	> 24
NC(=O)CC[C@@H]1NC(=O)[C@H](Cc2ccccc2)NC(=O)[C@H](Cc2ccc(O)cc2)NC(=O)[C@@H](N)CSSC[C@@H](C(=O)N2CCC[C@H]2C(=O)N[C@@H](CCCN=C(N)N)C(=O)NCC(N)=O)NC(=O)[C@H](CC(N)=O)NC1=O [VASOPRESSIN]	–	> 24
